Source: paper PMC7957578, “N-(1,3,4-Oxadiazol-2-yl)Benzamides as Antibacterial Agents against Neisseria gonorrhoeae” (International Journal of Molecular Sciences, 2021)
Values after ≈ are worked out from the molar mass of the structure shown. Where two headings read alike, the source gives them in different places.

What was measured:
[1] = tested on: E. coli JW55031 (TolC Mutant); experiment: MIC/MBC (CLSI broth microdilution) against E. coli TolC mutant; assay type: cell-based; settings: Escherichia coli
Experimental: (§1) The minimum inhibitory concentrations (MICs) of the tested compounds and control drugs, linezolid, vancomycin, and gentamicin, were determined using the broth microdilution method according to the guidelines outlined by the Clinical and Laboratory Standards Institute (CLSI) against clinically relevant bacterial (Staphylococcus aureus, MRSA, Escherichia coli, Enterococcus faecalis and Enterococcus faecium strains. S. aureus, MRSA, E. coli, Enterococcus faecalis and Enterococcus faecium were grown aerobically overnight on tryptone soy agar (TSA) plates at 37° C. Afterwards, a bacterial solution equivalent to 0.5 McFarland standard was prepared and diluted in cation-adjusted Mueller–Hinton broth (CAMHB) (for S. aureus, MRSA, and E. coli) to achieve a bacterial concentration of about 5 × 10^5 CFU/mL. Enterococcus faecalis and Enterococcus faecium 0.5 McFarland standard solution was diluted in tryptone soy broth (TSB) to achieve a bacterial concentration of about 5 × 10^5 CFU/mL. Compounds and control drugs were added in the first row of 96-well plates and serially diluted with the corresponding media containing bacteria. Plates were then incubated as previously described. […] The minimum bactericidal concentration (MBC) was tested by spotting 4 µL from wells with no growth onto TSA plates. Plates were incubated at 37 ° C for at least 18 h before recording the MBC. The MBC was categorized as the lowest concentration that reduced bacterial growth by 99.9% [45, 46, 47].

[2] = tested on: E. coli BW25113 (wild-type strain); experiment: MIC/MBC (CLSI broth microdilution) against E. coli BW25113 wild type; assay type: cell-based, Escherichia coli; settings: E. coli BW25113 wild-type strain; for MBC: read-out: MBC
Experimental: as §1

[3] = tested on: N. gonorrhoeae 194; experiment: MIC/MBC against N. gonorrhoeae clinical isolate 194; assay type: cell-based; settings: Neisseria gonorrhoeae
Experimental: (§2) Briefly, bacteria were grown overnight on chocolate agar II at 37° C in the presence of 5% CO2. Afterwards, a bacterial suspension equivalent to 1.0 McFarland standard was prepared and diluted in brucella broth supplemented with yeast extract, neopeptone, hematin, pyridoxal, and NAD. Test agents were added in the first row of the 96-well plates and serially diluted along the plates. Plates were then incubated at 37° C in the presence of 5% CO2 for 24 h. […] Plates were then incubated at 37 ° C in the presence of 5% CO2 for 24 h. The MBC was categorized as the lowest concentration that reduced bacterial growth by 99.9% [45, 46, 47].

[4] = tested on: MRSA USA300; experiment: MIC/MBC (CLSI broth microdilution) against MRSA USA300; assay type: cell-based, methicillin-resistant Staphylococcus aureus; settings: Staphylococcus aureus, MRSA USA300
Experimental: as §1

[5] = tested on: N. gonorrhoeae; experiment: MIC against N. gonorrhoeae in presence of fetal bovine serum; assay type: cell-based; settings: Neisseria gonorrhoeae, 24 h
[6] = tested on: VRE. faecalis ATCC 51299; experiment: MIC/MBC (CLSI broth microdilution) against VRE faecalis ATCC 51299; assay type: cell-based; settings: Enterococcus, VRE faecalis ATCC 51299
Experimental: as §1

[7] = tested on: panel drug-resistant pathogenic N. gonorrhoeae strains; experiment: MIC/MBC against a panel of drug-resistant N. gonorrhoeae strains; assay type: cell-based, Neisseria gonorrhoeae; settings: MBC the same as or one-fold higher than MIC
[8] = tested on: VRE. faecium ATCC 700221; experiment: MIC/MBC (CLSI broth microdilution) against VRE faecium ATCC 700221; assay type: cell-based; settings: Enterococcus, VRE faecium ATCC 700221
Experimental: as §1

[9] = tested on: N. gonorrhoeae 200; experiment: MIC/MBC against N. gonorrhoeae clinical isolate 200; assay type: cell-based; settings: Neisseria gonorrhoeae
Experimental: as §2

[10] = tested on: N. gonorrhoeae WHO L; experiment: MIC/MBC against N. gonorrhoeae WHO L reference strain; assay type: cell-based; settings: Neisseria gonorrhoeae
Experimental: as §2

[11] = tested on: VRE. faecalisATCC 51575; experiment: MIC/MBC (CLSI broth microdilution) against VRE faecalis ATCC 51575; assay type: cell-based; settings: Enterococcus, VRE faecalis ATCC 51575
Experimental: as §1

[12] = tested on: tested bacterial strains (Table 3); experiment: MBC versus MIC against the panel of Gram-positive and Gram-negative pathogens; assay type: cell-based; settings: MBCs more than three-fold higher than MICs, strains of Table 3
Experimental: While the focus of these new N-(1,3,4-oxadiazol-2-yl)benzamides is towards N. gonorrhoeae, we proceeded to test their activity against other Gram-positive and Gram-negative pathogens. Intriguingly, HSGN-235, HSGN-237, and HSGN-238 had potent activity against the tested Gram-positive bacterial pathogens. For instance, all three compounds had potent activity against the staphylococcal strains, with MICs ranging from 0.25 to 1 µg/mL (Table 3). Furthermore, HSGN-235, HSGN-237, and HSGN-238 maintained potent activity against clinically relevant Gram-positive bacterial pathogens such as vancomycin-resistant enterococci (VRE) and Listeria monocytogenes (Table 3). Additionally, we moved to test if HSGN-235, HSGN-237, and HSGN-238 were active against other Gram-negative bacterial pathogens. […] This lack of activity against Gram-negative bacteria appears to be due to HSGN-235, HSGN-237, and HSGN-238 being a substrate for efflux.
The minimum inhibitory concentrations (MICs) of the tested compounds and control drugs, linezolid, vancomycin, and gentamicin, were determined using the broth microdilution method according to the guidelines outlined by the Clinical and Laboratory Standards Institute (CLSI) against clinically relevant bacterial (Staphylococcus aureus, MRSA, Escherichia coli, Enterococcus faecalis and Enterococcus faecium strains. S. aureus, MRSA, E. coli, Enterococcus faecalis and Enterococcus faecium were grown aerobically overnight on tryptone soy agar (TSA) plates at 37° C. Afterwards, a bacterial solution equivalent to 0.5 McFarland standard was prepared and diluted in cation-adjusted Mueller–Hinton broth (CAMHB) (for S. aureus, MRSA, and E. coli) to achieve a bacterial concentration of about 5 × 10^5 CFU/mL. Enterococcus faecalis and Enterococcus faecium 0.5 McFarland standard solution was diluted in tryptone soy broth (TSB) to achieve a bacterial concentration of about 5 × 10^5 CFU/mL. Compounds and control drugs were added in the first row of 96-well plates and serially diluted with the corresponding media containing bacteria. […]

[13] = tested on: N. gonorrhoeae strain 181; experiment: MIC by broth microdilution against N. gonorrhoeae strain 181; assay type: cell-based, Neisseria gonorrhoeae; settings: N. gonorrhoeae strain 181
Experimental: as §2

[14] = tested on: N. gonorrhoeae 165; experiment: MIC/MBC against N. gonorrhoeae clinical isolate 165; assay type: cell-based; settings: Neisseria gonorrhoeae
Experimental: as §2

[15] = tested on: L. monocytogenes ATCC 19115; experiment: MIC/MBC (CLSI broth microdilution) against L. monocytogenes ATCC 19115; assay type: cell-based; settings: Listeria monocytogenes, ATCC19115, L. monocytogenes ATCC 19115
[16] = tested on: N. gonorrhoeae 197; experiment: MIC/MBC against N. gonorrhoeae clinical isolate 197; assay type: cell-based; settings: Neisseria gonorrhoeae
Experimental: as §2

[17] = tested on: E. faecalis ATCC 29212; experiment: MIC/MBC (CLSI broth microdilution) against E. faecalis ATCC 29212; assay type: cell-based; settings: Enterococcus faecalis, ATCC29212, E. faecalis ATCC 29212
Experimental: as §1

[18] = tested on: S. aureus ATCC 25923; experiment: MIC/MBC (CLSI broth microdilution) against S. aureus ATCC 25923; assay type: cell-based; settings: Staphylococcus aureus, ATCC25923, S. aureus ATCC 25923
Experimental: as §1

[19] = tested on: N. gonorrhoeae 166; experiment: MIC/MBC against N. gonorrhoeae clinical isolate 166; assay type: cell-based; settings: Neisseria gonorrhoeae
Experimental: as §2

[20] = Escherichia coli, read-out: MIC

## CNC(C)C1CCC(N)C(OC2C(N)CC(N)C(OC3OCC(C)(O)C(NC)C3O)C2O)O1 (centres unmarked) [Gentamicin, gentamicin, reference compound]
[1]
  MBC: 0.25 µg/mL (≈ 0.523 µM)
  MIC: 0.25 µg/mL (≈ 0.523 µM)
[2]; Escherichia coli
  MBC: 0.25 µg/mL (≈ 0.523 µM)
[2]; [20]
  MIC: 0.25 µg/mL (≈ 0.523 µM)

## O=C(Nc1nnc(-c2ccc(C(F)(F)F)cc2)o1)c1ccc(OC(F)(F)F)c(F)c1 [HSGN-235, 3-Fluoro-4-(trifluoromethoxy)-N-(5-(4-(trifluoromethyl)phenyl)-1,3,4-oxadiazol-2-yl)benzamide]
[1]
  MBC: > 64 µg/mL
  MIC: 4 µg/mL (≈ 9.19 µM)
[3]
  MBC: 1 µg/mL (≈ 2.3 µM)
  MIC: 1 µg/mL (≈ 2.3 µM)
[4]; read-out: MBC
  MBC: 64 µg/mL (≈ 147 µM)
[4]; read-out: MIC
  MIC: 0.5 µg/mL (≈ 1.15 µM)
[2]
  MIC: >8 µg/mL
[2]; Escherichia coli
  MBC: > 8 µg/mL
[2]; [20]
  MIC: > 8 µg/mL
[5]; 5% FBS added to the media
  MIC: 4 µg/mL
[5]; 10% FBS added to the media
  MIC: 8 µg/mL
[6]; read-out: MBC
  MBC: 64 µg/mL (≈ 147 µM)
[6]; read-out: MIC
  MIC: 1 µg/mL (≈ 2.3 µM)
[7]
  type of activity from MBC versus MIC: bactericidal activity
[8]; read-out: MBC
  MBC: 32 µg/mL (≈ 73.5 µM)
[8]; read-out: MIC
  MIC: 1 µg/mL (≈ 2.3 µM)
[9]
  MBC: 2 µg/mL (≈ 4.6 µM)
  MIC: 2 µg/mL (≈ 4.6 µM)
[10]
  MBC: 2 µg/mL (≈ 4.6 µM)
  MIC: 1 µg/mL (≈ 2.3 µM)
[11]; read-out: MBC
  MBC: > 64 µg/mL
[11]; read-out: MIC
  MIC: 2 µg/mL (≈ 4.6 µM)
[12]
  type of activity from MBC versus MIC: bacteriostatic agents
[13]
  MIC: moderate activity
[13]; Neisseria gonorrhoeae, read-out: MIC
  MIC: 16 µg/mL (≈ 36.8 µM)
[14]
  MBC: 2 µg/mL (≈ 4.6 µM)
  MIC: 2 µg/mL (≈ 4.6 µM)
[15]; read-out: MBC
  MBC: 64 µg/mL (≈ 147 µM)
[15]; read-out: MIC
  MIC: 1 µg/mL (≈ 2.3 µM)
[16]
  MBC: 2 µg/mL (≈ 4.6 µM)
  MIC: 1 µg/mL (≈ 2.3 µM)
[17]; read-out: MBC
  MBC: 32 µg/mL (≈ 73.5 µM)
[17]; read-out: MIC
  MIC: 4 µg/mL (≈ 9.19 µM)
[18]; read-out: MBC
  MBC: > 64 µg/mL
[18]; read-out: MIC
  MIC: 1 µg/mL (≈ 2.3 µM)
[19]
  MBC: 2 µg/mL (≈ 4.6 µM)
  MIC: 2 µg/mL (≈ 4.6 µM)
